In ChEMBL document CHEMBL1145617, “Identification of acridinyl hydrazides as potent aspartic protease inhibitors” (Bioorg Med Chem Lett, 2008):

How the values were obtained:
Cathepsin D = Cathepsin D (Homo sapiens, UniProt P07339); test: Inhibition of human cathepsin D by FRET assay
Plasmepsin II = Plasmepsin II (Plasmodium falciparum, UniProt P46925); test: Inhibition of Plasmodium falciparum plasmepsin-2 by FRET assay
Sequence of Plasmepsin II (P46925 whole entry): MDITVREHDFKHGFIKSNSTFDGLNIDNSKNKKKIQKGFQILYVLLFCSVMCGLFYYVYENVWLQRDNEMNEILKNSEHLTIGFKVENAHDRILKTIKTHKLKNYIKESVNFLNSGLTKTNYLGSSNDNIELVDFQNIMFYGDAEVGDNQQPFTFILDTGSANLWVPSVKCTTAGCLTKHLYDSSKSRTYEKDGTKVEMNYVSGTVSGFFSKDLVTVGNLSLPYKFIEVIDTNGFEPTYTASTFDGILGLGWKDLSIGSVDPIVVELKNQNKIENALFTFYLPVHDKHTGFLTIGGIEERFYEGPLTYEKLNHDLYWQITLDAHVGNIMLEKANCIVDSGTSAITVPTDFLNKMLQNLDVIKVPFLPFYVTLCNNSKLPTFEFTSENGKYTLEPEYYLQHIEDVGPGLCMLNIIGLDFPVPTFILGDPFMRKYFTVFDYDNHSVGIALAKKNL

Sequence of Cathepsin D (P07339 65-162 limits assumed): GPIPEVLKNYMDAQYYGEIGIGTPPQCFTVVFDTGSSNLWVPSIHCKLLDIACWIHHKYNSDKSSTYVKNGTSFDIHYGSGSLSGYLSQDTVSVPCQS
Sequence of Cathepsin D (P07339 169-412 limits assumed): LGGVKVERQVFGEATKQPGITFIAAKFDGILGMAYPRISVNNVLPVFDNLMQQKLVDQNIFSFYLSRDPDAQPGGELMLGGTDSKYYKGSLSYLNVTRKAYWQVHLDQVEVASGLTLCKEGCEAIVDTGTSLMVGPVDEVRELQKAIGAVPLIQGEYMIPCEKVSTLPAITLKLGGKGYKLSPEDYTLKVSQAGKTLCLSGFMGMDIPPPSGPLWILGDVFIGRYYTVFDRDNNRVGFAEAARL

Row | IC50 (Cathepsin D) [nM] | IC50 (Plasmepsin II) [nM] | SMILES
1 | 0.5 | 0.13 | Cc1ccc2c(NNC(=O)c3ccccc3O)c3ccccc3nc2c1C
2 | 9 | 4 | Cc1cccc(C(=O)NNc2c3ccccc3nc3c(C)c(C)ccc23)c1

Row | SMILES | IC50 (Cathepsin D) [nM] | IC50 (Plasmepsin II) [nM]
3 | CC(C)CC(=O)N[C@H](C(=O)N[C@H](C(=O)N[C@@H](CC(C)C)[C@@H](O)CC(=O)N[C@@H](C)C(=O)N[C@@H](CC(C)C)[C@@H](O)CC(=O)O)C(C)C)C(C)C [PEPSTATIN] |  | 0.68
